Data published in paper PMC8233901, “D-Amino Acid-Containing Lipopeptides Derived from the Lead Peptide BP100 with Activity against Plant Pathogens” (International Journal of Molecular Sciences, 2021).
Where “and” joins values, the source holds several entries; their conditions need not be identical. Equal values may be shown once. Where a SMILES comes first, the peptide text is derived from it. [ ]: non-standard residue; d: D form. The star is where a group is joined. Lauroyl = CCCCCCCCCCCC(=O)*; Hexanoyl = CCCCCC(=O)*; Butyryl = CCCC(=O)*

Columns and labels:
tobacco leaves = assay: Effect of peptide infiltration on tobacco leaves (lesion size); format: in vivo; settings: for Size of the lesion (mm) 50 µM: 100 µL infiltrated into mesophyll of tobacco leaves; for Size of the lesion (mm) 50 µM / Size of the lesion (mm) 150 µM / Size of the lesion (mm) 250 µM: ± confidence interval
Experimental: The lipopeptides were evaluated for their effect upon infiltration on tobacco leaves as described previously. Peptide solutions of 50, 150 and 250 μM were infiltrated (100 μL) into the mesophylls of fully expanded tobacco leaves. Infiltrations were carried out in a single leaf, and for each peptide and dose, at least three leaves randomly distributed in different plants were infiltrated. Control infiltrations with water (negative control) or melittin (positive control) at the same molar concentration were performed. The appearance of symptoms on the leaves was followed for 48 h after infiltration and measured as a lesion diameter.

horse erythrocytes = assay: Hemolytic activity (hemoglobin release from erythrocytes); format: cell-based; settings: 37 °C, ± confidence interval (α = 0.05); for Hemolysis (%) 250 µM / Hemolysis (%) 150 µM / Hemolysis (%) 375 µM: relative to melittin; for Hemolysis (%) 50 µM: absorbance 540 nm, relative to melittin 100 µM
Experimental: The hemolytic activity of the compounds was evaluated by determining hemoglobin release from erythrocyte suspensions of horse blood (5% vol/vol) (Oxoid) as previously described. Blood was centrifuged at 6000 g for 5 min, washed three times with tris(hydroxymethyl)aminomethane (TRIS) buffer (10 mM TRIS, 150 mM NaCl, pH 7.2) and diluted 10 times. Compounds were solubilized in TRIS buffer at 750, 500, 300 and 100 μM and mixed with horse erythrocytes (1:1 v/v). The mixture was incubated under continuous shaking for 1 h at 37 °C. Then, the tubes were centrifuged at 3500 g for 10 min, 80 μL aliquots of the supernatant transferred to 100-well microplates (Bioscreen), diluted with 80 μL water, and the absorbance measured at 540 nm (Bioscreen). Complete hemolysis was obtained by the addition of melittin at 100 μM (Sigma-Aldrich Corporation, Madrid, Spain). The percentage of hemolysis (H) was calculated using the equation: H = 100 × [(Op−Ob)/(Om−Ob)], where Op is the density for a given compound concentration, Ob for the buffer, and Om for the melittin-positive control.

[1] = D-amino acid lipopeptides, lesion diameter, 48 h, at least three leaves
[2] = D-amino acid lipopeptides, 100 µL infiltrated into tobacco leaves, lesion diameter, 48 h, at least three leaves
[3] = D-amino acid lipopeptides, 250 µM, 100 µL infiltrated into tobacco leaves, lesion diameter, 48 h, at least three leaves
[4] = Table 2, 250 µM infiltrated into tobacco leaves
[5] = D-amino acid lipopeptides, 250 µM, TRIS buffer pH 7.2, 1 h
[6] = D-amino acid lipopeptides, TRIS buffer pH 7.2, 1 h

Row | Molecule | Size of the lesion (mm) 50 µM (tobacco leaves; [1]) [mm] | Size of the lesion (mm) 150 µM (tobacco leaves; [2]) [mm] | Size of the lesion (mm) 250 µM (tobacco leaves; [3]) [mm] | Size of the lesion (mm) 250 µM (tobacco leaves; [4]) [mm] | Hemolysis (%) 250 µM (horse erythrocytes; [5]) | Hemolysis (%) 50 µM (horse erythrocytes; [6]) [%] | Hemolysis (%) 150 µM (horse erythrocytes; [6]) [%] | Hemolysis (%) 375 µM (horse erythrocytes; [6]) [%] | Hemolysis (%) 250 µM (horse erythrocytes; Table 2, 250 µM, 1 h) [%] | necrosis in infiltrated tobacco leaves (tobacco leaves; positive control, 250 µM) [mm]
1 | CCCCCC(=O)N[C@@H](CCCCN)C(=O)N[C@@H](CCCCN)C(=O)N[C@@H](CC(C)C)C(=O)N[C@H](Cc1ccccc1)C(=O)N[C@@H](CCCCN)C(=O)N[C@@H](CCCCN)C(=O)N[C@H](C(=O)N[C@@H](CC(C)C)C(=O)N[C@@H](CCCCN)C(=O)N[C@@H](Cc1ccc(O)cc1)C(=O)N[C@@H](CC(C)C)C(N)=O)[C@@H](C)CC [BP472, C5H11CO-KKLfKKILKYL-NH2] | 2 ± 1 | 4 ± 1 | 4 ± 1 | 4 ± 1 | 78 ± 5% |  |  |  |  | 
2 | CCCC(=O)NCCCC[C@H](NC(=O)[C@H](CCCCN)NC(=O)[C@@H](Cc1ccccc1)NC(=O)[C@H](CC(C)C)NC(=O)[C@H](CCCCN)NC(=O)[C@H](CCCCN)NC(C)=O)C(=O)N[C@H](C(=O)N[C@@H](CC(C)C)C(=O)N[C@@H](CCCCN)C(=O)N[C@@H](Cc1ccc(O)cc1)C(=O)N[C@@H](CC(C)C)C(N)=O)[C@@H](C)CC [BP473, Ac-KKLfKK(COC3H7)ILKYL-NH2] | 2 ± 2 | 4 ± 0.9 | 5 ± 2 | 5 ± 2 | 84 ± 11% |  |  |  |  | 
3 | CCCC(=O)NCCCC[C@H](NC(=O)[C@@H](NC(=O)[C@H](CCCCN)NC(=O)[C@H](CCCCN)NC(=O)[C@@H](Cc1ccccc1)NC(=O)[C@H](CC(C)C)NC(=O)[C@H](CCCCN)NC(=O)[C@H](CCCCN)NC(C)=O)[C@@H](C)CC)C(=O)N[C@@H](CCCCN)C(=O)N[C@@H](Cc1ccc(O)cc1)C(=O)N[C@@H](CC(C)C)C(N)=O [BP474, Ac-KKLfKKIK(COC3H7)KYL-NH2] (Ac-KKL[dF]KKIK(Butyryl)KYL-NH2) | 0 ± 0 | 2 ± 2 | 4 ± 2 | 4 ± 2 | 0 ± 0% | 0 ± 0 | 0 ± 0 | 0 ± 0 |  | 
4 | CCCC(=O)NCCCC[C@H](NC(=O)[C@H](CCCCN)NC(=O)[C@H](CC(C)C)NC(=O)[C@@H](NC(=O)[C@H](CCCCN)NC(=O)[C@H](CCCCN)NC(=O)[C@@H](Cc1ccccc1)NC(=O)[C@H](CC(C)C)NC(=O)[C@H](CCCCN)NC(=O)[C@H](CCCCN)NC(C)=O)[C@@H](C)CC)C(=O)N[C@@H](CC(C)C)C(N)=O [BP475, Ac-KKLfKKILKK(COC3H7)L-NH2] (Ac-KKL[dF]KKILKK(Butyryl)L-NH2) | 5 ± 1 | 7 ± 2 | 10 ± 1 | 10 ± 1 | 0 ± 0% and 0% | 0 ± 0 | 0 ± 0 | 0 ± 0 |  | 
5 | CCCCCCCCCCCC(=O)NCCCC[C@H](NC(=O)[C@H](Cc1ccc(O)cc1)NC(=O)[C@H](CCCCN)NC(=O)[C@H](CC(C)C)NC(=O)[C@@H](NC(=O)[C@H](CCCCN)NC(=O)[C@H](CCCCN)NC(=O)[C@@H](Cc1ccccc1)NC(=O)[C@H](CC(C)C)NC(=O)[C@H](CCCCN)NC(=O)[C@H](CCCCN)NC(C)=O)[C@@H](C)CC)C(N)=O [BP476, Ac-KKLfKKILKYK(COC11H23)-NH2] (Ac-KKL[dF]KKILKYK(Lauroyl)-NH2) | 3 ± 0.6 | 3 ± 0.5 | 5 ± 0.5 | 5 ± 0.5 | 94 ± 10% |  |  | 94 ± 67 |  | 
6 | CCCCCC(=O)NCCCC[C@@H](NC(=O)[C@H](CC(C)C)NC(=O)[C@H](CCCCN)NC(=O)[C@H](CCCCN)NC(C)=O)C(=O)N[C@@H](CCCCN)C(=O)N[C@@H](CCCCN)C(=O)N[C@H](C(=O)N[C@@H](CC(C)C)C(=O)N[C@@H](CCCCN)C(=O)N[C@@H](Cc1ccc(O)cc1)C(=O)N[C@@H](CC(C)C)C(N)=O)[C@@H](C)CC [BP484, Ac-KKLk(COC5H11)KKILKYL-NH2] | 0 ± 0 | 2 ± 2 | 7 ± 1 | 7 ± 1 | 10 ± 2% |  |  |  |  | 
7 | CCCC(=O)N[C@@H](CCCCN)C(=O)N[C@@H](CCCCN)C(=O)N[C@@H](CC(C)C)C(=O)N[C@H](Cc1ccccc1)C(=O)N[C@@H](CCCCN)C(=O)N[C@@H](CCCCN)C(=O)N[C@H](C(=O)N[C@@H](CC(C)C)C(=O)N[C@@H](CCCCN)C(=O)N[C@@H](Cc1ccc(O)cc1)C(=O)N[C@@H](CC(C)C)C(N)=O)[C@@H](C)CC [BP485, C3H7CO-KKLfKKILKYL-NH2] | 4 ± 0.7 | 7 ± 0.7 | 12 ± 1 | 12 ± 1 | 24 ± 9% |  |  |  |  | 
8 | CCCC(=O)NCCCC[C@H](NC(=O)[C@H](CCCCN)NC(C)=O)C(=O)N[C@@H](CC(C)C)C(=O)N[C@H](Cc1ccccc1)C(=O)N[C@@H](CCCCN)C(=O)N[C@@H](CCCCN)C(=O)N[C@H](C(=O)N[C@@H](CC(C)C)C(=O)N[C@@H](CCCCN)C(=O)N[C@@H](Cc1ccc(O)cc1)C(=O)N[C@@H](CC(C)C)C(N)=O)[C@@H](C)CC [BP486, Ac-KK(COC3H7)LfKKILKYL-NH2] | 4 ± 1 | 8 ± 1 | 17 ± 2 | 17 ± 2 | 14 ± 5% |  |  | 14 ± 2 |  | 
9 | CCCCCCCCCCCC(=O)NCCCC[C@@H](NC(=O)[C@H](CC(C)C)NC(=O)[C@H](CCCCN)NC(=O)[C@H](CCCCN)NC(C)=O)C(=O)N[C@@H](CCCCN)C(=O)N[C@@H](CCCCN)C(=O)N[C@H](C(=O)N[C@@H](CC(C)C)C(=O)N[C@@H](CCCCN)C(=O)N[C@@H](Cc1ccc(O)cc1)C(=O)N[C@@H](CC(C)C)C(N)=O)[C@@H](C)CC [BP488, Ac-KKLk(COC11H23)KKILKYL-NH2] | 4 ± 0.7 | 5 ± 1 | 13 ± 5 | 13 ± 5 | 86 ± 14% |  |  |  |  | 
10 | CCCCCCCCCCCC(=O)NCCCC[C@H](NC(=O)[C@H](CCCCN)NC(=O)[C@H](CCCCN)NC(=O)[C@@H](Cc1ccccc1)NC(=O)[C@H](CC(C)C)NC(=O)[C@H](CCCCN)NC(=O)[C@H](CCCCN)NC(C)=O)C(=O)N[C@@H](CC(C)C)C(=O)N[C@@H](CCCCN)C(=O)N[C@@H](Cc1ccc(O)cc1)C(=O)N[C@@H](CC(C)C)C(N)=O [BP489, Ac-KKLfKKK(COC11H23)LKYL-NH2] (Ac-KKL[dF]KKK(Lauroyl)LKYL-NH2) | 2 ± 0.5 | 6 ± 2 | 11 ± 1 | 11 ± 1 | 100 ± 6% |  |  | 100 ± 1 |  | 
11 | CCCCCCCCCCCC(=O)NCCCC[C@H](NC(=O)[C@@H](NC(=O)[C@H](CCCCN)NC(=O)[C@H](CCCCN)NC(=O)[C@@H](Cc1ccccc1)NC(=O)[C@H](CC(C)C)NC(=O)[C@H](CCCCN)NC(=O)[C@H](CCCCN)NC(C)=O)[C@@H](C)CC)C(=O)N[C@@H](CCCCN)C(=O)N[C@@H](Cc1ccc(O)cc1)C(=O)N[C@@H](CC(C)C)C(N)=O [BP490, Ac-KKLfKKIK(COC11H23)KYL-NH2] (Ac-KKL[dF]KKIK(Lauroyl)KYL-NH2) | 4 ± 0.7 | 6 ± 2 | 11 ± 3 | 11 ±3 | 100 ± 6% | 100 ± 3 |  |  |  | 
12 | CCCCCC(=O)NCCCC[C@H](NC(=O)[C@H](CCCCN)NC(=O)[C@H](CCCCN)NC(=O)[C@@H](Cc1ccccc1)NC(=O)[C@H](CC(C)C)NC(=O)[C@H](CCCCN)NC(=O)[C@H](CCCCN)NC(C)=O)C(=O)N[C@@H](CC(C)C)C(=O)N[C@@H](CCCCN)C(=O)N[C@@H](Cc1ccc(O)cc1)C(=O)N[C@@H](CC(C)C)C(N)=O [BP494, Ac-KKLfKKK(COC5H11)LKYL-NH2] (Ac-KKL[dF]KKK(Hexanoyl)LKYL-NH2) | 1 ± 1 | 6 ± 1 | 8 ± 1 | 8 ± 1 |  |  |  |  | 0.2 ± 0.2 | 
13 | melittin [reference compound] |  |  |  |  |  |  |  |  |  | 18
